Common to all, as to test: NCI anticancer screen, dose series, 48 h
In assay [1] the test system is 786-0.
Assay [2] concerns A498.
The subject of assay [3] is ACHN.
Assay [4] has as its system CAKI-1.
For assay [5], the system named is CCRF-CEM.
In assay [6] the test system is HCT-116.
Assay [7] has as its system IGROV-1.
Assay [8] relates to Malme-3M.
The test system of assay [9] is NCI/ADR-RES.
Assay [10] concerns OVCAR-4.
Assay [11] has as its system OVCAR-5.
In assay [12] the test system is OVCAR-8.
Assay [13] relates to PC-3.
The subject of assay [14] is RXF 393.
In assay [15] the test system is SF-268.
Assay [16] concerns SNB-75.
Assay [17] relates to T47D.
The subject of assay [18] is U-251.
Assay [19] has as its system UACC-62.
Assay [20] concerns EKVX.

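A five-concentration, 48-hour dose response in 96-well plates underlies each endpoint, interpolated linearly between surrounding concentrations. Abbreviation: GI50, concentration required for 50% inhibition of growth.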 Active and inactive are the calls of the source. Rule as the data show it: active = GI50 up to about 1.1 µM and inactive = higher.

The source of these data is ChEMBL document CHEMBL1201862, “PubChem BioAssay data set” (2004).

Regarding `CCN(CCCl)c1cc(CN(C)C)cc(NC(=O)c2ccc(C(=O)Nc3ccccc3)cc2)c1`, the GI50 was 0.21 µM (active) in assay [1]; 0.316 µM (active) in assay [2]; 0.218 µM (active) in assay [3]; 0.65 µM (active) in assay [4]; 0.27 µM (active) in assay [5]; 0.424 µM (active) in assay [6]. In addition, the GI50 is 0.177 µM (active) in assay [7]; 0.191 µM (active) in assay [8]; 2.63 µM (inactive) in assay [9]; 0.288 µM (active) in [10]; 0.836 µM (active) in assay [11]; 0.417 µM (active) in assay [12]. Further, the GI50 was 0.34 µM (active) in assay [13]; 0.152 µM (active) in assay [14]; 0.337 µM (active) in [15]; 1.08 µM (active) in assay [16]; 1.24 µM (inactive) in assay [17]; 0.25 µM (active) in assay [18]. The GI50 in assay [19] was 1.29 µM (inactive).
As to `CO[C@@H]1[C@H](OC(=O)NC(=O)CCl)CC[C@]2(CO2)[C@H]1[C@@]1(C)O[C@@H]1CC=C(C)C` [O-CHLOROACETYLCARBAMOYLFUMAGILLOL], the GI50 in assay [1] was 12.6 µM (inactive); in assay [2], 17.2 µM (inactive); in assay [3] it was 14.1 µM (inactive); in assay [4], 11 µM (inactive); in assay [5], 0.9 µM (active); in [20], 14.1 µM (inactive). In addition, the GI50 in assay [7] was 12.2 µM (inactive); in assay [8] it was 5.97 µM (inactive); in [9], 16 µM (inactive); in assay [10], 14.4 µM (inactive); in assay [11], 17.3 µM (inactive); in assay [12] it was 15.8 µM (inactive). Also, the GI50 was 10.7 µM (inactive) in assay [13]; 8.36 µM (inactive) in assay [14]; 13.6 µM (inactive) in assay [15]; 7.96 µM (inactive) in assay [16]; 12.6 µM (inactive) in assay [17]; 3.08 µM (inactive) in assay [18]. For the same compound, the GI50 in assay [19] is 12 µM (inactive).
With `Cc1cc2c(c(=O)o1)C1=S(SC(c3ccccc3)=C1)S2` (stereo not given), the GI50 is 15 µM (inactive) in assay [1]; 13.9 µM (inactive) in [2]; 34.7 µM (inactive) in [3]; > 100 µM (inactive) in assay [5]; 22.8 µM (inactive) in [6]; 55.5 µM (inactive) in assay [7]. The GI50 was 30.1 µM (inactive) in assay [8]; 83.4 µM (inactive) in assay [9]; 29 µM (inactive) in assay [10]; 78.9 µM (inactive) in assay [11]; 54.7 µM (inactive) in assay [12]; 24.4 µM (inactive) in [13]. The GI50 in assay [14] was 20.2 µM (inactive); in assay [15] it was 45.7 µM (inactive); in assay [16] it was 26 µM (inactive); in assay [17] it was 36.9 µM (inactive); in assay [18], 22.5 µM (inactive); in [19] it was 39.2 µM (inactive).
Consider `O=C1c2c(ccc3c2CCC3)CC12Cc1ccccc1C2`, for which the GI50 in [1] was 20.7 µM (inactive); in assay [2], 12.4 µM (inactive); in [3], 13.7 µM (inactive); in [4] it was 5.94 µM (inactive); in [5], 11.4 µM (inactive); in assay [20] it was 22.5 µM (inactive). Also, the GI50 was 5.92 µM (inactive) in assay [6]; 29 µM (inactive) in assay [7]; 18.9 µM (inactive) in [8]; 28.4 µM (inactive) in [9]; 31.2 µM (inactive) in assay [10]; 30 µM (inactive) in assay [11]. Moreover, the GI50 in assay [12] is 20.5 µM (inactive); in [13] it was 25.1 µM (inactive); in assay [14] it was 11.5 µM (inactive); in assay [15] it was 33.7 µM (inactive); in assay [16], 21.5 µM (inactive); in [17], 28.2 µM (inactive). For the same compound, the GI50 in [18] was 22.2 µM (inactive).
For the compound `COC(NC(=O)Nc1ccc(C)cc1)(C(F)(F)F)C(F)(F)F`, the GI50 in [1] is 54.2 µM (inactive); in assay [2], 30.3 µM (inactive); in assay [3], 24 µM (inactive); in [5], 2.67 µM (inactive); in [6], 29.3 µM (inactive); in assay [7], 26.5 µM (inactive). In addition, the GI50 was 36.3 µM (inactive) in assay [8]; 25.9 µM (inactive) in assay [9]; 34.2 µM (inactive) in [10]; 34.9 µM (inactive) in assay [11]; 25.2 µM (inactive) in [12]; 13.9 µM (inactive) in assay [13]. The GI50 in assay [14] is 23.1 µM (inactive); in [15], 40.4 µM (inactive); in assay [16], 28.1 µM (inactive); in assay [17] it was 18.7 µM (inactive); in assay [18], 18.1 µM (inactive); in assay [19] it was 10.6 µM (inactive).
As to `CCOc1cn(C2CC(O)C(CO)O2)c(=O)[nH]c1=O` (stereo not given), the GI50 in [1] is > 100 µM (inactive); in assay [2], 45.8 µM (inactive); in assay [3], > 100 µM (inactive); in assay [4] it was > 100 µM (inactive); in [5], > 100 µM (inactive); in [20], > 100 µM (inactive). Besides, the GI50 in [6], in assay [7], in assay [8], in assay [9], in assay [10] and in assay [11] was > 100 µM (inactive) in each case. Besides, the GI50 in [13], in [14], in [15], in [16], in assay [17] and in [18] was > 100 µM (inactive) throughout. In addition, in assay [19], the GI50 is > 100 µM (inactive).
Take `CCCN(CCC)C(=O)c1c(Cl)c2cccnc2n2c(C)cnc12`: the GI50 in assay [1] is > 100 µM (inactive); in [2], 69.5 µM (inactive); in [3], > 100 µM (inactive); in [4], 22.9 µM (inactive); in [5], 51.8 µM (inactive); in assay [20], > 100 µM (inactive). For the same compound, the GI50 in [6] was 48.3 µM (inactive); in assay [7] it was 64.4 µM (inactive); in [8], > 100 µM (inactive); in assay [9], 50.4 µM (inactive); in assay [10], > 100 µM (inactive); in assay [11] it was > 100 µM (inactive). Also, the GI50 in assay [12] was > 100 µM (inactive); in assay [13], 23.9 µM (inactive); in [14], 35 µM (inactive); in [15], 96.2 µM (inactive); in [16] it was 62.7 µM (inactive); in [17], 11.7 µM (inactive). The GI50 in assay [19] was 52.7 µM (inactive).
As to `CSc1c(C(=O)Nc2ccc(C)cc2)c(N)n(N)c(=O)c1C#N`, the GI50 in assay [1], in [2], in assay [4], in assay [5], in assay [20] and in assay [6] was > 100 µM (inactive) each time. Moreover, the GI50 in assay [7], in [8], in assay [9], in assay [10], in assay [11] and in assay [12] was > 100 µM (inactive) throughout. The GI50 in [13], in assay [14], in assay [15], in assay [16], in [17] and in assay [18] was > 100 µM (inactive) throughout. Further, the GI50 in assay [19] is > 100 µM (inactive).
Consider `COC(=O)Cc1c([C@H]2[C@H](CC(=O)OC)c3ccccc3N2C(C)=O)[nH]c2ccccc12`, for which the GI50 in [1] was > 100 µM (inactive); in [2], > 100 µM (inactive); in assay [3] it was > 100 µM (inactive); in assay [4] it was > 100 µM (inactive); in [5], 67.5 µM (inactive); in assay [20], > 100 µM (inactive). Besides, the GI50 is > 100 µM (inactive) in assay [6]; 34.4 µM (inactive) in [7]; > 100 µM (inactive) in assay [8]; > 100 µM (inactive) in assay [9]; > 100 µM (inactive) in assay [11]; > 100 µM (inactive) in assay [12]. Also, the GI50 in assay [13] is 80 µM (inactive); in assay [14], > 100 µM (inactive); in assay [15], > 100 µM (inactive); in assay [16], > 100 µM (inactive); in assay [17], > 100 µM (inactive); in assay [18], 91.2 µM (inactive). Further, the GI50 in assay [19] was > 100 µM (inactive).
`COC(=O)C12OCC34C(CC5C(C)=CC(=O)C(O)C5(C)C3C(O)C1O)OC(=O)C(OC(=O)CC(C)C)C24` (stereo not given): the GI50 in assay [1] is 0.0468 µM (active); in assay [2], 0.002 µM (active); in assay [3], < 0.0371 µM (active); in assay [4] it was 0.005 µM (active); in assay [5] it was 0.000486 µM (active); in assay [20], 0.00313 µM (active). Moreover, the GI50 in assay [7] was 0.000564 µM (active); in assay [8] it was 0.00126 µM (active); in assay [9], 0.00289 µM (active); in assay [11] it was 0.00325 µM (active); in assay [12], 0.00206 µM (active); in assay [13] it was 0.000871 µM (active). Moreover, the GI50 is 0.00168 µM (active) in [14]; 0.00217 µM (active) in [15]; 0.00216 µM (active) in [16]; 0.00146 µM (active) in assay [17]; 0.00116 µM (active) in assay [18]; 0.00223 µM (active) in assay [19].
As to `COc1cc(Nc2c(C#N)[n+]([O-])c3ccccc3[n+]2[O-])cc(OC)c1OC`, the GI50 was 20 µM (inactive) in assay [1]; 48.3 µM (inactive) in assay [2]; 56.8 µM (inactive) in assay [3]; 38.1 µM (inactive) in [4]; 27 µM (inactive) in assay [5]; 29 µM (inactive) in assay [20]. Moreover, the GI50 in assay [6] was 16.4 µM (inactive); in assay [8], 35.2 µM (inactive); in assay [9] it was 17.3 µM (inactive); in assay [10], > 100 µM (inactive); in assay [11] it was 22.3 µM (inactive); in assay [12], 31.9 µM (inactive). Moreover, the GI50 was 33.3 µM (inactive) in assay [13]; 33.8 µM (inactive) in [14]; 27.2 µM (inactive) in assay [15]; > 100 µM (inactive) in assay [16]; 14.8 µM (inactive) in [17]; 38 µM (inactive) in [18].
